From patent US6737383B1, “Herbicidal oxadiazolidines” (priority 1999, dated 2004)

Columns and labels:
bedstraw = assay: Test B pre/postemergence bedstraw; format: in vivo, Galium aparine
Method in brief: (§1)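 Herbicidal effect was estimated by eye on a ten-point control scale after plants spent twelve to sixteen days in a greenhouse following soil or foliar treatment. Foliar sprays targeted plants at one to four leaves; all doses were formulated in a non-phytotoxic solvent with surfactant.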

Alexandergrass = assay: Test D Alexandergrass; format: in vivo, Brachiaria plantaginea; settings: Preemergence, 0 to 100 scale
Method in brief: (§2)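 Seeds were sown in greenhouse pots, one species per pot or compartment. Compounds were in a non-phytotoxic solvent mixture with surfactant; preemergence applications went on the sandy loam surface within one day of planting. Injury was rated visually after 14 to 21 days, 0 (none) to 100 (complete control).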

common ragweed = assay: Test D common ragweed; format: in vivo, Ambrosia elatior; settings: Preemergence, 0 to 100 scale
Description: (§3) Seeds, tubers, or plant parts of Alexandergrass (Brachiaria plantaginea), bermuda-grass (Cynodon dactylon), common pursiane (Portulaca oleracea), common ragweed (Ambrosia elatior), common groundsel (Senecio vulgaris), dallisgrass (Paspalum dilatatum), goosegrass (Eleusine indica), guineagrass (Panicum maximum), itchgrass (Rottboellia exaltata), Johnson grass (Sorghum halepense), large crabgrass (Digitaria sanguinalis), pitted morningglory (Ipomoea lacunosa), purple nutsedge (Cyperus rotundus), sandbur (Cenchrus echinatus), sourgrass (Trichachne insularis), Spanishneedles (Bidens bipinnata), surinam grass (Brachiaria decumbens) and tall mallow (Malva sylvestris) were planted into greenhouse pots of flats containing greenhouse planting medium. Plant species were grown in separate pots or individual compartments. Preemergence applications were made within one day of planting the seed or plant part.
(§4) Test chemicals were formulated in a non-phytotoxic solvent mixture which included a surfactant and applied preemergence to the surface of the pot containing seeds in a sandy loam soil. Untreated control pots and treated pots were placed in the greenhouse for growth and visually evaluated for injury 14 to 21 days after herbicide application. Plant response ratings, summarized in Table C, are based on a 0 to 100 scale where 0 is no injury and 100 is complete control. A dash (−) response means no test result.

rice = assay: Test B flood test rice; format: in vivo, Oryza sativa
Method in brief: (§5)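 Plants were grown to the 2-leaf stage before treatment with test chemical, then held in a greenhouse for twelve to sixteen days. Injury was visually rated against untreated controls on a 0–10 scale, where 0 is no effect and 10 is complete control.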

duck salad = assay: Test B flood test duck salad; format: in vivo, Heteranthera limosa
Method in brief: as §5

dallisgrass = assay: Test D dallisgrass; format: in vivo, Paspalum dilatatum; settings: Preemergence, 0 to 100 scale
Method in brief: as §2

goosegrass = assay: Test D goosegrass; format: in vivo, Eleusine indica; settings: Preemergence, 0 to 100 scale
Description: as §3, §4

wheat = assay: Test B pre/postemergence wheat; format: in vivo, Triticum aestivum
Method in brief: as §1

[1] = Postemergence, Rate 62 g/ha, scale 0 to 10, 0 is no effect, 10 is complete control
[2] = Postemergence, Rate 250 g/ha, scale 0 to 10, 0 no effect, 10 complete control
[3] = Preemergence, Rate 62 g/ha, scale 0 to 10 (0 no effect, 10 complete control)
[4] = Preemergence, Rate 125 g/ha, scale 0 to 10 (0 no effect, 10 complete control)
[5] = Preemergence, Rate 250 g/ha, scale of 0 to 10 where 0 is no effect and 10 is complete control
[6] = Preemergence, Rate 500 g/ha, scale 0 (no effect) to 10 (complete control)
[7] = Rate 125 g/ha, Postemergence, scale 0 to 10, 0 no effect, 10 complete control
[8] = Rate 500 g/ha, Postemergence, scale 0 to 10, 0 no effect, 10 complete control
[9] = Rate 16 g/ha, 0 no injury, 100 complete control
[10] = Rate 32 g/ha, 0 no injury, 100 complete control
[11] = Rate 64 g/ha, 0 no injury, 100 complete control
[12] = Rate 125 g/ha, 0 no injury, 100 complete control
[13] = Rate 125 g/ha, Postemergence section (flood test species), scale 0 to 10, 0 no effect, 10 complete control
[14] = Rate 250 g/ha, headed Pre-emergence (flood test species), scale 0 to 10 (0 no effect, 10 complete control)
[15] = Rate 500 g/ha, headed Pre-emergence (flood test species), scale 0 to 10 (0 no effect, 10 complete control)
[16] = Rate 500 g/ha, listed under Postemergence (flood test species), scale 0 to 10, 0 no effect, 10 complete control
[17] = Rate 1000 g/ha, Pre-emergence (as headed), scale 0 to 10
[18] = Rate 2000 g/ha, Pre-emergence (as headed), scale 0 to 10
[19] = flood test, listed under Postemergence, Rate 250 g/ha, scale 0 to 10, 0 no effect, 10 complete control

## CC(C)N(C(=O)n1oc(=O)n(Cc2ccccc2)c1=O)c1ccc(F)cc1 [Compound 78]
bedstraw; [1]
  Bedstraw plant response rating: 0
bedstraw; [2]
  Bedstraw plant response rating: 4
bedstraw; [3]
  Bedstraw plant response rating: 0
bedstraw; [4]
  Plant response rating, Bedstraw: 0
bedstraw; [5]
  Plant response rating, Bedstraw: 0
bedstraw; [6]
  Bedstraw plant response rating: 0
bedstraw; [7]
  Bedstraw plant response rating: 0
bedstraw; [8]
  Bedstraw plant response rating: 8
Alexandergrass; [9]
  Plant response rating, Alexandergrass: 0
Alexandergrass; [10]
  Plant response rating, Alexandergrass: 0
Alexandergrass; [11]
  Plant response rating, Alexandergrass: 30
Alexandergrass; [12]
  Plant response rating, Alexandergrass: 75
Alexandergrass; Rate 250 g/ha
  Plant response rating, Alexandergrass: 75
Alexandergrass; Rate 500 g/ha
  Plant response rating, Alexandergrass: 100
Common ragweed; [9]
  Plant response rating, C. ragweed: 0
Common ragweed; [10]
  Plant response rating, C. ragweed: 0
Common ragweed; [11]
  Plant response rating, C. ragweed: 0
Common ragweed; [12]
  Plant response rating, C. ragweed: 0
Common ragweed; Rate 250 g/ha
  Plant response rating, C. ragweed: 0
Common ragweed; Rate 500 g/ha
  Plant response rating, C. ragweed: 0
rice; [1]
  Rice plant response rating: 0
rice; [13]
  Rice plant response rating: 0
rice; [14]
  Rice plant response rating: 0
rice; [15]
  Plant response rating, Rice: 0
rice; [16]
  Rice plant response rating: 2
rice; [17]
  Rice plant response rating: 0
rice; [18]
  Rice plant response rating: 0
rice; [19]
  Rice plant response rating: 0
Duck salad; [1]
  Ducksalad plant response rating: 0
Duck salad; [13]
  Ducksalad plant response rating: 0
Duck salad; [14]
  Ducksalad plant response rating: 0
Duck salad; [15]
  Plant response rating, Ducksalad: 0
Duck salad; [16]
  Ducksalad plant response rating: 0
Duck salad; [17]
  Ducksalad plant response rating: 0
Duck salad; [18]
  Ducksalad plant response rating: 0
Duck salad; [19]
  Ducksalad plant response rating: 0
dallisgrass; [9]
  Plant response rating, Dallisgrass: 0
dallisgrass; [10]
  Plant response rating, Dallisgrass: 0
dallisgrass; [11]
  Plant response rating, Dallisgrass: 75
dallisgrass; [12]
  Plant response rating, Dallisgrass: 100
dallisgrass; Rate 250 g/ha
  Plant response rating, Dallisgrass: 100
dallisgrass; Rate 500 g/ha
  Plant response rating, Dallisgrass: 100
goosegrass; [9]
  Plant response rating, Goosegrass: 10
goosegrass; [10]
  Plant response rating, Goosegrass: 10
goosegrass; [11]
  Plant response rating, Goosegrass: 85
goosegrass; [12]
  Plant response rating, Goosegrass: 98
goosegrass; Rate 250 g/ha
  Plant response rating, Goosegrass: 98
goosegrass; Rate 500 g/ha
  Plant response rating, Goosegrass: 100
wheat; [1]
  Wheat plant response rating: 0
wheat; [2]
  Wheat plant response rating: 0
wheat; [3]
  Wheat plant response rating: 0
wheat; [4]
  Plant response rating, Wheat: 0
wheat; [5]
  Plant response rating, Wheat: 3
wheat; [6]
  Wheat plant response rating: 3
wheat; [7]
  Wheat plant response rating: 0
wheat; [8]
  Wheat plant response rating: 0
